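Step 1: Grow cells in 96-well plates. Step 2: Expose to compound for 48 hours at 5 concentrations. Step 3: Interpolate endpoints linearly; if unreached, use highest concentration. GI50 is the concentration that inhibits growth by half. The concentration for full growth arrest is given as TGI.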
Legend:
Experiment in all cases: inhibition of tumour cell growth, NCI panel, 48 h
IGROV1 ovarian = system: IGROV1 ovarian
K-562 leukemia = system: K-562 leukemia
OVCAR-3 ovarian = system: OVCAR-3 ovarian
OVCAR-5 ovarian = system: OVCAR-5 ovarian
SK-MEL-28 melanoma = system: SK-MEL-28 melanoma
T-47D breast = system: T-47D breast
UACC-257 melanoma = system: UACC-257 melanoma
UACC-62 melanoma = system: UACC-62 melanoma

O=C1c2cc3c(cc2CC12Cc1ccc4c(c1C2=O)CCCC4)CCCC3 (configuration not stated)
TGI (IGROV1 ovarian): > 100 µM
TGI (K-562 leukemia): > 100 µM
TGI (OVCAR-3 ovarian): > 100 µM
TGI (OVCAR-5 ovarian): > 100 µM
TGI (SK-MEL-28 melanoma): > 100 µM
TGI (T-47D breast): > 100 µM
TGI (UACC-257 melanoma): > 100 µM

C(CCCCc1nnc(N2CCCCC2)o1)CCCc1nnc(N2CCCCC2)o1
TGI (IGROV1 ovarian): > 100 µM
TGI (K-562 leukemia): > 100 µM
TGI (OVCAR-3 ovarian): > 100 µM
TGI (OVCAR-5 ovarian): > 100 µM
TGI (SK-MEL-28 melanoma): > 100 µM
TGI (UACC-257 melanoma): > 100 µM

COc1cc(/C=C2/C[C@H]3[C@@H]4CC=C5C[C@@H](OC(C)=O)CC[C@]5(C)[C@H]4CC[C@]3(C)NC2=O)cc(OC)c1OC
TGI (IGROV1 ovarian): 69.6 µM
TGI (K-562 leukemia): > 100 µM
TGI (OVCAR-3 ovarian): > 100 µM
TGI (OVCAR-5 ovarian): 92.2 µM
TGI (SK-MEL-28 melanoma): 70.9 µM
TGI (T-47D breast): 72.8 µM
TGI (UACC-257 melanoma): 97.1 µM
TGI (UACC-62 melanoma): 47 µM

COc1c(O)cc(O)c2c(=O)cc(-c3ccccc3)oc12
TGI (IGROV1 ovarian): > 100 µM
TGI (K-562 leukemia): > 100 µM
TGI (OVCAR-3 ovarian): 72.5 µM
TGI (OVCAR-5 ovarian): > 100 µM
TGI (SK-MEL-28 melanoma): > 100 µM
TGI (UACC-257 melanoma): > 100 µM
TGI (UACC-62 melanoma): > 100 µM

C/C(Nc1ccc(F)cc1)=C1/CCOC1=O
TGI (IGROV1 ovarian): > 100 µM
TGI (K-562 leukemia): > 100 µM
TGI (OVCAR-3 ovarian): > 100 µM
TGI (SK-MEL-28 melanoma): > 100 µM
TGI (T-47D breast): > 100 µM
TGI (UACC-257 melanoma): > 100 µM
TGI (UACC-62 melanoma): > 100 µM

O=C(O)c1ccn(-c2cccc(-n3ccc(C(=O)O)n3)n2)n1
TGI (IGROV1 ovarian): > 100 µM
TGI (K-562 leukemia): > 100 µM
TGI (OVCAR-3 ovarian): > 100 µM
TGI (OVCAR-5 ovarian): > 100 µM
TGI (SK-MEL-28 melanoma): > 100 µM
TGI (UACC-257 melanoma): > 100 µM
TGI (UACC-62 melanoma): > 100 µM

COc1ccc(-c2cc(-c3ccc(Nc4ccnc5cc(Cl)ccc45)cc3)[nH]c(=O)c2C#N)c2ccccc12
TGI (IGROV1 ovarian): > 79.1 µM
TGI (K-562 leukemia): 6.35 µM
TGI (OVCAR-3 ovarian): 5.34 µM
TGI (OVCAR-5 ovarian): > 100 µM
TGI (SK-MEL-28 melanoma): 42.3 µM
TGI (UACC-257 melanoma): 99.4 µM
TGI (UACC-62 melanoma): 46.7 µM

Oc1c([Si](c2ccccc2)(c2ccccc2)c2ccccc2)cc2ccccc2c1-c1c(O)c([Si](c2ccccc2)(c2ccccc2)c2ccccc2)cc2ccccc12
TGI (IGROV1 ovarian): > 100 µM
TGI (K-562 leukemia): > 100 µM
TGI (OVCAR-5 ovarian): > 100 µM
TGI (SK-MEL-28 melanoma): > 100 µM
TGI (T-47D breast): > 100 µM
TGI (UACC-257 melanoma): > 100 µM
TGI (UACC-62 melanoma): > 100 µM

COC(=O)C(CSSC[C@H](N/C(C)=C/C(C)=O)C(=O)OC)N/C(C)=C/C(C)=O (some centres not stated)
TGI (IGROV1 ovarian): > 100 µM
TGI (K-562 leukemia): > 100 µM
TGI (OVCAR-3 ovarian): 88.9 µM
TGI (OVCAR-5 ovarian): 39.2 µM
TGI (SK-MEL-28 melanoma): > 100 µM
TGI (T-47D breast): 58 µM
TGI (UACC-257 melanoma): > 100 µM
TGI (UACC-62 melanoma): > 100 µM

COc1ccc(-n2c(=O)n(C)c(=O)n2-c2ccc(OC)cc2)cc1
TGI (IGROV1 ovarian): > 100 µM
TGI (K-562 leukemia): > 100 µM
TGI (OVCAR-3 ovarian): > 100 µM
TGI (OVCAR-5 ovarian): > 100 µM
TGI (SK-MEL-28 melanoma): > 100 µM
TGI (T-47D breast): > 100 µM
TGI (UACC-257 melanoma): > 100 µM
TGI (UACC-62 melanoma): > 100 µM

COc1cc(/C=C2\Sc3scc(-c4cccc([N+](=O)[O-])c4)[n+]3C2=O)cc(OC)c1OC
TGI (IGROV1 ovarian): 29.4 µM
TGI (K-562 leukemia): > 100 µM
TGI (OVCAR-3 ovarian): 44.8 µM
TGI (OVCAR-5 ovarian): 55.6 µM
TGI (SK-MEL-28 melanoma): 34.8 µM
TGI (T-47D breast): 25 µM
TGI (UACC-257 melanoma): 25.2 µM
TGI (UACC-62 melanoma): 24.2 µM

CCCCCCCCCCCCCCCCCCNc1ccn(C2OC(COP(=O)(O)OCC3OC(n4cc(F)c(NCCCCCCCCCCCCCCCCCC)nc4=O)CC3O)C(O)C2O)c(=O)n1 (configuration not stated)
TGI (IGROV1 ovarian): > 100 µM
TGI (K-562 leukemia): > 100 µM
TGI (OVCAR-3 ovarian): > 100 µM
TGI (OVCAR-5 ovarian): > 100 µM
TGI (SK-MEL-28 melanoma): > 100 µM
TGI (T-47D breast): > 100 µM
TGI (UACC-257 melanoma): > 100 µM
TGI (UACC-62 melanoma): > 100 µM

CCOC(=O)C(NC(=O)CC)(Nc1cc(C)on1)C(F)(F)F (configuration not stated)
TGI (IGROV1 ovarian): > 100 µM
TGI (K-562 leukemia): > 100 µM
TGI (OVCAR-5 ovarian): > 100 µM
TGI (SK-MEL-28 melanoma): > 100 µM
TGI (T-47D breast): > 100 µM
TGI (UACC-257 melanoma): > 100 µM

O=C(Nc1nc2ccccc2s1)c1cc([N+](=O)[O-])ccc1Cl
TGI (K-562 leukemia): > 100 µM
TGI (OVCAR-3 ovarian): > 82.5 µM
TGI (OVCAR-5 ovarian): > 100 µM
TGI (SK-MEL-28 melanoma): > 100 µM
TGI (T-47D breast): > 100 µM
TGI (UACC-257 melanoma): > 100 µM
TGI (UACC-62 melanoma): > 100 µM

C[C@@H]1CC[C@H]2C(C(O)CCCCC(O)C3=C(C(F)(F)F)O[C@@H]4O[C@@]5(C)CC[C@H]6[C@H](C)CC[C@@H]3[C@@]46OO5)=C(C(F)(F)F)O[C@@H]3O[C@@]4(C)CC[C@@H]1[C@]32OO4 (some centres not stated)
GI50 (IGROV1 ovarian): 15.6 µM
TGI (IGROV1 ovarian): > 100 µM
GI50 (K-562 leukemia): 16.2 µM
TGI (K-562 leukemia): > 100 µM
GI50 (OVCAR-3 ovarian): 7.26 µM
TGI (OVCAR-3 ovarian): > 100 µM
GI50 (SK-MEL-28 melanoma): 86.7 µM
TGI (SK-MEL-28 melanoma): > 100 µM
GI50 (T-47D breast): 2.52 µM
TGI (T-47D breast): 9.02 µM
GI50 (UACC-257 melanoma): 14.9 µM
TGI (UACC-257 melanoma): > 100 µM
GI50 (UACC-62 melanoma): 8.13 µM
TGI (UACC-62 melanoma): > 100 µM

COc1ccc(-c2c(C#N)c(S)n(NS(=O)(=O)c3ccc(C)cc3)c(=O)c2C#N)cc1
TGI (IGROV1 ovarian): 33.9 µM
TGI (K-562 leukemia): 47.2 µM
TGI (OVCAR-5 ovarian): 60.7 µM
TGI (SK-MEL-28 melanoma): 63.2 µM
TGI (UACC-257 melanoma): > 100 µM
TGI (UACC-62 melanoma): 31.5 µM

COc1ccc2c(c1)c(CC(=O)O)c(C)n2C(=O)c1ccc(Cl)cc1
TGI (IGROV1 ovarian): > 100 µM
TGI (K-562 leukemia): > 100 µM
TGI (OVCAR-3 ovarian): > 100 µM
TGI (OVCAR-5 ovarian): > 100 µM
TGI (SK-MEL-28 melanoma): > 100 µM
TGI (T-47D breast): > 100 µM
TGI (UACC-257 melanoma): > 100 µM

Cc1c(NC(=O)CSC(=S)N2CCN(Cc3ccccc3)CC2)c(=O)n(-c2ccccc2)n1C
TGI (IGROV1 ovarian): > 100 µM
TGI (K-562 leukemia): > 100 µM
TGI (OVCAR-3 ovarian): > 100 µM
TGI (OVCAR-5 ovarian): > 100 µM
TGI (SK-MEL-28 melanoma): > 100 µM
TGI (T-47D breast): > 100 µM
TGI (UACC-257 melanoma): > 100 µM

CC1=NN(c2nc(N)nc(/C(C#N)=C/c3cccn3-c3cc(Cl)cc(Cl)c3)n2)C(C)(C)C1
TGI (IGROV1 ovarian): > 100 µM
TGI (OVCAR-3 ovarian): > 100 µM
TGI (OVCAR-5 ovarian): > 100 µM
TGI (SK-MEL-28 melanoma): > 100 µM
TGI (T-47D breast): > 100 µM
TGI (UACC-257 melanoma): > 100 µM
TGI (UACC-62 melanoma): > 100 µM

CCN(CC)c1ccc2cc(C(=O)Nc3cccc4ccccc34)c(=N)oc2c1
TGI (IGROV1 ovarian): > 100 µM
TGI (K-562 leukemia): > 100 µM
TGI (OVCAR-5 ovarian): > 100 µM
TGI (SK-MEL-28 melanoma): > 100 µM
TGI (T-47D breast): > 100 µM
TGI (UACC-257 melanoma): > 100 µM
TGI (UACC-62 melanoma): > 100 µM

NCCCN(CCCN)CCN(CCN(CCCN)CCCN)CCN(CCCN)CCCN
TGI (IGROV1 ovarian): > 100 µM
TGI (K-562 leukemia): > 100 µM
TGI (OVCAR-3 ovarian): > 100 µM
TGI (OVCAR-5 ovarian): > 100 µM
TGI (SK-MEL-28 melanoma): > 100 µM
TGI (T-47D breast): > 100 µM
TGI (UACC-257 melanoma): > 100 µM

CC1(O)CC(=O)c2c(cc3ccc(-c4c5c(c(O)c6c(O)cccc46)C(=O)CC(C)(O)C5)c(O)c3c2O)C1 (configuration not stated)
TGI (IGROV1 ovarian): 3.43 µM
TGI (K-562 leukemia): 11.9 µM
TGI (OVCAR-3 ovarian): 0.646 µM
TGI (OVCAR-5 ovarian): 8.66 µM
TGI (SK-MEL-28 melanoma): 7.01 µM
TGI (UACC-257 melanoma): 1.3 µM
TGI (UACC-62 melanoma): > 100 µM

Nc1ccccc1CC(O)C(=O)O (configuration not stated)
TGI (K-562 leukemia): > 100 µM
TGI (OVCAR-3 ovarian): > 100 µM
TGI (OVCAR-5 ovarian): > 100 µM
TGI (SK-MEL-28 melanoma): > 100 µM
TGI (T-47D breast): > 100 µM
TGI (UACC-257 melanoma): > 100 µM
TGI (UACC-62 melanoma): > 100 µM

CC(=O)Oc1c2oc3ccc(Cl)cc3c(=O)c2c(O)c2ccsc12
TGI (K-562 leukemia): > 100 µM
TGI (OVCAR-3 ovarian): > 100 µM
TGI (OVCAR-5 ovarian): > 100 µM
TGI (SK-MEL-28 melanoma): > 100 µM
TGI (T-47D breast): 86.7 µM
TGI (UACC-257 melanoma): > 100 µM
TGI (UACC-62 melanoma): > 100 µM
